The subject of one data set is Lipid deposits. As to the kind of experiment: Oil red O histochemistry (lipid deposits). The format is in vivo, CD-1 mice. Here is the method:
(§1) The synthetic SG was mixed with finely ground Purina Chow mouse pellets (Mouse Diet™, Purina) to create the experimental pellets with a SG content of 1000 µg per pellet. Dry materials were blended with a sterile silicon spatula. For every 5 g of standard feed, 2.5 mL of doubly-distilled water (dd)H2O was added and the dough was kneaded and round up into pellets. A single sterol glucoside containing pellet was placed in the feeding tray each morning before the addition of regular mouse chow (ad libitum). All experimental pellets were entirely consumed by the mice each day. Control mice were fed standard mouse chow pellets of identical weight with no additives. SG feeding was conducted daily for 15 weeks and mice were behaviorally monitored until sacrifice at 35 weeks (time point 1) or 52 weeks (time point 2).
Tissue-mounted slides were processed to evaluate lipid distribution with light microscopy with a protocol adapted from Dr. Roy Ellis (IMVS Division of Pathology, The Queen Elizabeth Hospital, Woodville, South Australia). First, an oil red O stock solution was prepared 2 hours prior to execution of the histochemical procedures. The oil red O stock stain solution was made by mixing oil red O (0.5 g, Sigma-Aldrich, Oakville, ON, Canada) and isopropanol (100 mL, Fisher Scientific, Nepean, ON, Canada) over a 40°C water bath. Immediately prior to beginning the oil red O histochemical procedures, the oil red O working solution was made by combining 20 mL of distilled water for every 30 mL of oil red O stock stain solution. […] Slide-mounted sections were rinsed in coplin jars for 15 minutes at RT in three changes of PBS. Sections were then rinsed at RT with 60% isopropanol for 5 minutes. The spinal cord sections were then stained with a freshly prepared working solution of oil red O for 20 minutes and then rinsed with 60% isopropanol. Nuclear counterstaining was achieved by staining the sections with haematoxylin (haematoxylin, 7211, Richard Allan Scientific, Kalamazoo, MI, USA) for 1 minute. Finally, the sections were rinsed with distilled water, dried under a fume hood and cover-slipped with Entellen (Merck, Darmstadt, Germany).
The numbers of immunoreactive somata or inclusions were counted across the ventral horn of the spinal cord, across brain hemispheres, or per dorsal or ventral root with the 40x objective lens in a 600 µm / 600 µm area within region perimeters defined by a mouse brain atlas (2001). For each animal, eight cross-sections per spinal cord or brain region were studied. An average of both the right and left ventral horn for each of the eight cross sections was generated giving a final averaged number for each animal in each of the spinal cord areas. For quantification of the level of mitochondrial activity (cytochrome c oxidase labelling) in the lumbar spinal cord or tyrosine hydroxylase immunoreactivity in the substantia nigra pars compacta and striatal sections, images captured using the Motic B5 Professional Series 3.0 microscope (Motic Instruments Inc., Richmond, ON) and analyzed using Motic B5 Professional, Motic Images Advanced 3.0 (Motic Instruments Inc., Richmond, ON) were scanned into a TIFF format file and analysed using the NIH Image J 1.37 software to measure density levels of antibody labelling. Eight to 12 sections from each mouse per region of interest were included.

Another data set deals with CD-1 mice. As to the kind of experiment: Leg extension reflex test. Format: in vivo. As to the method:
Five-month old male CD-1 mice (30.1-35.7 g, 7.5 cm - 8.8 cm) were purchased from Charles River (Wilmington, MA). Adult mice were chosen to mimic the mean age of onset of ALS-PDC (Kurland, 1988; Kurland et al., 1994). Thirty mice for the SG study were randomly divided into 2 groups (14 control and 16 experimental animals). All animals were housed singly in a virus-free barrier facility in a room maintained at 22°C under a 12 hour light/dark cycle. The mice were provided ad libitum access to food and water.
as §1, with “All experimental pellets were entirely consumed by the mice each day. Control mice were fed standard mouse chow pellets of identical weight with no additives.” left out
Leg extension reflex test: The leg extension reflex test was used as a measure of motor neuron dysfunction (Barneoud and Curet, 1999). […] The leg extension reflex was measured three times per week in each animal. […]

[1] abbreviates: SG-fed vs control, time-point 2, 52 wk.

Entries after “also recorded” stand apart in the source; their conditions may differ. Marks after values point to notes of the source that are not given here.

`CCC(C=CC(C)C1CCC2C3CC=C4CC(OC5OC(CO)C(O)C(O)C5O)CCC4(C)C3CCC12C)C(C)C` (centres unmarked) [SG]: in the data set on Lipid deposits (SG-fed animals, 35 to 52 weeks), the “accumulation of lipid deposits over time, lumbar spinal cord” value is reported as “did not experience an accumulation of deposits over time” and the “lipid deposits, time-dependent effects in the dorsal or ventral roots” value is “did not show time-dependent effects”. In addition, in the data set with Lipid deposits (SG-fed over time, 35 to 52 wk), the “Lipid deposits, DR” value is “SG-fed DR over time: ns, p=0.8062”; the “Lipid deposits, Lsc” value was “SG-fed Lsc over time: ns, p=0.4864”; the “Lipid deposits, VR” value is given as “SG-fed VR over time: ns, p=0.5478”. For the same compound, in the data set with Lipid deposits (SG-fed vs control, 35 weeks), the “lipids in the dorsal roots” value is listed as “not significant” and the “lipids in the ventral spinal roots” value is “+10%”. For the same compound, the “lipid deposits, inter-group differences in lumbar spinal cord, dorsal root, ventral root” value in the data set with Lipid deposits (SG-fed vs control, 52 weeks) is given as “statistically significant inter-group differences were not found”. Moreover, the “Lipids deposits Lsc VH” value in the data set with Lipid deposits (setting [1]) is given as “Lipids deposits Lsc VH: +10%*”. For the same compound, the “Leg extension reflex test performance (score)” value with CD-1 mice (SG-fed animals, soon after 35 weeks / during the study) is “steady decline in performance; also recorded: decreased”. Moreover, in the data set on CD-1 mice (setting [1]), the Leg extension entry is listed as “Leg extension* (*p<0.05)”.

The values above are taken from patent publication EP2181589A1, “Neurotoxic sterol glycosides” (Shaw, Christopher Ariel, priority 2008, dated 2010).
